Data from patent US5559144A, “Furyl and thienyl alkynyl-N-hydroxy urea derivatives” (Abbott Laboratories, priority 1995, dated 1996).

Columns and labels:
[1] = tested on: Leukotrienes (biosynthesis); assay: Inhibition of leukotriene biosynthesis in vivo after oral administration, rat peritoneal anaphylaxis model; settings: 1 h, gavage one hour prior to antigen challenge, read-out: Percent Inhibition of Leukotrienes; for inhibition in vivo at 200 µmol/kg: Oral Dose at 200 μmol/kg; for inhibition in vivo at 100 µmol/kg: Oral Dose at 100 μmol/kg; for inhibition in vivo at 30 µmol/kg: Oral Dose at 30 μmol/kg
Description: Inhibition of the biosynthesis of leuktrienes in vivo after oral administration of compound was determined using a rat peritoneal anaphylaxis model in a similar manner as that described by Young and coworkers (Young, P. R.; Dyer, R. D.; Carter, G. W. Fed. Proc., Fed. Am. Soc. Exp. Biol. 1985, 44, 1185). In this model rats were injected intraperitoneally (ip) with rabbit antibody to bovine serum albumin (BSA) and three hours later injected ip with BSA to induce an antgen-antibody response. Rats were sacrificed 15 minutes after this challenge and the peritoneal fluids were collected and analyzed for leukotriene levels. Test compounds were administered by gavage one hour prior to the antigen challenge. Percent inhibition values were determined by comparing the treatment group to the mean of the control group.

[2] = molecular target: T1, 5-Lipoxygenase from RBL-1 20,000xg Supernatant (Rattus norvegicus, UniProt P12527); assay: 5-lipoxygenase inhibitory activity, 20,000 xg supernatant from homogenized RBL-1 cells; assay type: biochemical; settings: radiolabeled arachidonic acid, triplicate
T1 construct: 20,000 xg supernatant from 1.5 million homogenized RBL-1 cells; endogenous in cells; host or cells: RBL-1 cells (20,000 xg supernatant of homogenate)
T1 sequence (P12527 1-673): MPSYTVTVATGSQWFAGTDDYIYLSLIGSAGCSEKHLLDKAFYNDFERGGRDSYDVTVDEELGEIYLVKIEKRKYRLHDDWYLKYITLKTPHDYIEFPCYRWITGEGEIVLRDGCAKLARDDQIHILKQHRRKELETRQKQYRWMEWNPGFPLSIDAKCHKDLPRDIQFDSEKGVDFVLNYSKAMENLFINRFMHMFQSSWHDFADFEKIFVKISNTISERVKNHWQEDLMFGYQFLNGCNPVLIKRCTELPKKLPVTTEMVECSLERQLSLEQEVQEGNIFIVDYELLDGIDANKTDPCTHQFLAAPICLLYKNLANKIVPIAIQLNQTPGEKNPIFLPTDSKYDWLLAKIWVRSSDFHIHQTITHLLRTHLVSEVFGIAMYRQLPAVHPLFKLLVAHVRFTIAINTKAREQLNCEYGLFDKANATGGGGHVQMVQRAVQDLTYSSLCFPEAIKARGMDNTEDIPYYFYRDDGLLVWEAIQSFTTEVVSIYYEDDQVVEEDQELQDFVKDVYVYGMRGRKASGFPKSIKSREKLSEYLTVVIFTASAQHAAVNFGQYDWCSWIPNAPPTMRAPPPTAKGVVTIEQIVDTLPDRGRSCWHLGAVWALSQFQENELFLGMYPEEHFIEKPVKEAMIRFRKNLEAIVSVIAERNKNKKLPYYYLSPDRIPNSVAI
Description: Assays to determine 5-lipoxygenase inhibitory activity of representative compounds of the present invention were performed in […] incubations containing the 20,000 xg supernatant from 1.5 million homogenized RBL-1 cells and various concentrations of the test compound. Reactions were initiated by addition of radiolabeled arachidonic acid and terminated by acidification and ether extraction. Reaction products were separated from nonconverted substrate by thin layer chromatography and measured by liquid scintillation spectroscopy. All incubations are performed in triplicate. Inhibition of 5-lipoxygenase activity was calculated as the ratio of the amount of product formed in the presence and absence of inhibitor. […] (Dyer, R. D.; Haviv, F.; Hanel, A. M.; Bornemier, D. A.; Carter, G. W. Fed. Proc., Fed. Am. Soc. Exp. Biol. 1984, 43, 1462A).

IC50 [2]	Structure (SMILES)	also measured
2400 nM	CC(C#Cc1ccccc1)N(O)C(N)=O (stereo not drawn) [Example 1, N-Hydroxy-N(4-phenyl-3-butyn-2-yl)urea]	inhibition in vivo at 200 µmol/kg [1]: 98%
	COc1ccc2cc(C#CC(C)N(O)C(N)=O)ccc2c1 (stereo not drawn) [Example 2, N-Hydroxy-N-[4-(6-methoxynaphth-2-yl)-3-butyn-2-yl]urea]	inhibition in vivo at 200 µmol/kg [1]: 66%
100 nM	CC(C#Cc1cccc(Oc2ccccc2)c1)N(O)C(N)=O (stereo not drawn) [Example 3, N-Hydroxy-N-[4-(3-phenoxyphenyl)-3-butyn-2-yl]urea]	
400 nM	CC(C#CCSc1ccccc1)N(O)C(N)=O (stereo not drawn) [Example 4, N-Hydroxy-N-(5phenylthio-3-pentyn-2-yl)urea]	inhibition in vivo at 200 µmol/kg [1]: 64%
3600 nM	CC(C#CCN(C)Cc1ccccc1)N(O)C(N)=O (stereo not drawn) [Example 5, N-Hydroxy-N-[5-[(N-methyl-N-benzyl)amino]-3-pentyn,2-yl]urea]	
200 nM	CC(C#Cc1cccc(OCc2ccccc2)c1)N(O)C(N)=O (stereo not drawn) [Example 6, N-Hydroxy-N-[4-(3-benzyloxyphenyl)-3-butyn-2-yl]urea]	
130 nM	CC(C#Cc1ccc(OCc2ccccc2)cc1)N(O)C(N)=O (stereo not drawn) [Example 7, N-Hydroxy-N-[4-(4-benzyloxyphenyl)-3-butyn-2-yl]urea]	
1900 nM	CC(C#CC1CCCCC1)N(O)C(N)=O (stereo not drawn) [Example 8, N-Hydroxy-N-[4-cyclohexyl-3-butyn-2-yl]urea]	inhibition in vivo at 200 µmol/kg [1]: 41%
1200 nM	CC(C#CC1=CCCCC1)N(O)C(N)=O (stereo not drawn) [Example 9, N-Hydroxy-N-(4-cyclohexen-1-yl-3butyn-2-yl)urea]	
	CC(C#CCOc1ccccc1)N(O)C(N)=O (stereo not drawn) [Example 10, N-Hydroxy-N-(5-phenoxy-3-pentyn-2-yl)urea]	inhibition in vivo at 200 µmol/kg [1]: 99%
700 nM	CC(C#CCCCc1ccccc1)N(O)C(N)=O (stereo not drawn) [Example 11, N-Hydroxy,N-(7-phenyl-3-heptyn-2-yl)urea]	inhibition in vivo at 200 µmol/kg [1]: 99%
300 nM	CC(C#Cc1ccc(Oc2ccccc2)cc1)N(O)C(N)=O (stereo not drawn) [Example 12, N-Hydroxy-N[4-(4-phenoxyphenyl)-3-butyn-2-yl]urea]	
300 nM	CCCCc1ccc(C#CC(C)N(O)C(N)=O)s1 (stereo not drawn) [Example 13, N-Hydroxy-N-[4-(5-butylthien-2-yl)-3-butyn-2-yl]urea]	
1700 nM	Cc1ccc(C#CC(C)N(O)C(N)=O)s1 (stereo not drawn) [Example 14, N-Hydroxy-N-[4-(5,methylthien-2-yl)-3-butyn-2-y]urea]	
3300 nM	CNC(=O)N(O)C(C)C#Cc1ccccc1 (stereo not drawn) [Example 15, N-Hydroxy-N-(4-phenyl-3-butyn-2-yl)-N'-methylurea]	
100 nM	CC(C#Cc1cc2ccccc2s1)N(O)C(N)=O (stereo not drawn) [Example 16, N-Hydroxy-N-[4-(2-benzo[b]thienyl)-3-butyn-2-yl]urea]	
800 nM	CC(C#Cc1ccc(Br)cc1)N(O)C(N)=O (stereo not drawn) [Example 17, N-Hydroxy-N-[4-(4-bromophenyl)-3-butyn-2-yl]urea]	inhibition in vivo at 200 µmol/kg [1]: 98%
500 nM	CNC(=O)N(O)C(C)C#Cc1ccc(Br)cc1 (stereo not drawn) [Example 18, N-Hydroxy-N-[4-(4-bromophenyl)-3-butyn-2-yl]-N'-methylurea]	
400 nM	CC(C#Cc1ccc(Cl)cc1)N(O)C(N)=O (stereo not drawn) [Example 19, N-Hydroxy-N-[4-(4-chlorophenyl)-3-butyn-2-yl]urea]	inhibition in vivo at 100 µmol/kg [1]: 82%
1100 nM	CNC(=O)N(O)C(C)C#Cc1ccc(Cl)cc1 (stereo not drawn) [Example 20, N-Hydroxy-N-[4-(4-chlorophenyl)-3-butyn-2-yl]-N'-methylurea]	inhibition in vivo at 100 µmol/kg [1]: 89%
2100 nM	CC(C#Cc1ccc(F)cc1)N(O)C(N)=O (stereo not drawn) [Example 21, N-Hydroxy-N-[4,(4-fluorophenyl)-3-butyn-2-yl]urea]	inhibition in vivo at 100 µmol/kg [1]: 90%
400 nM	CC(C)c1ccc(C#CC(C)N(O)C(N)=O)cc1 (stereo not drawn) [Example 22, N-Hydroxy-N-[4-[4-(1-methylethyl)phenyl]-3-butyn-2-yl]urea]	inhibition in vivo at 100 µmol/kg [1]: 86%

IC50 [2]	Structure (SMILES)	also measured
500 nM	CNC(=O)N(O)C(C)C#Cc1ccc(C(C)C)cc1 (stereo not drawn) [Example 23, N-Hydroxy-N-[4-[4-(1-methylethyl)phenyl]-3-butyn-2-yl]-N'-methylurea]	
300 nM	CCc1ccc(C#CC(C)N(O)C(N)=O)cc1 (stereo not drawn) [Example 24, N-Hydroxy-N-[4-(4-ethylphenyl)-3-butyn-2-yl]urea]	
400 nM	CCc1ccc(C#CC(C)N(O)C(=O)NC)cc1 (stereo not drawn) [Example 25, N-Hydroxy-N-[4-(4-ethylphenyl)-3-butyn-2-yl]-N'-methylurea]	inhibition in vivo at 100 µmol/kg [1]: 69%
900 nM	CC(C#CCCc1ccccc1)N(O)C(N)=O (stereo not drawn) [Example 26, N-Hydroxy-N-(6-phenyl-3-hexyn-2-yl)urea]	inhibition in vivo at 100 µmol/kg [1]: 78%
700 nM	CNC(=O)N(O)C(C)C#CCCc1ccccc1 (stereo not drawn) [Example 27, N-Hydroxy-N-(6-phenyl-3-hexyn-2-yl)-N'-methylurea]	
1400 nM	Cc1ccc(C#CC(C)N(O)C(N)=O)cc1 (stereo not drawn) [Example 28, N-Hydroxy-N-[4-(4-methylphenyl)-3-butyn-2-yl]urea]	
800 nM	CNC(=O)N(O)C(C)C#Cc1ccc(C)cc1 (stereo not drawn) [Example 29, N-Hydroxy-N-[4-(4-methylphenyl)-3-butyn-2-yl]-N'-methylurea]	
6200 nM	CC(C#Cc1ccco1)N(O)C(N)=O (stereo not drawn) [Example 31, N-Hydroxy-N-[4-(2-furyl)-3-butyn-2-yl]urea]	
400 nM	Cc1ccc(Oc2cccc(C#CC(C)N(O)C(N)=O)c2)cc1 (stereo not drawn) [Example 35, N-Hydroxy-N-[4-[3-(4-methylphenoxy)phenyl]-3-butyn-2-yl]urea]	
2000 nM	COc1ccc(C#CC(C)N(O)C(N)=O)cc1 (stereo not drawn) [Example 37, N-Hydroxy-N-[4-(4-methoxyphenyl)-3-butyn-2-yl]urea]	
	NC(=O)N(O)CC#CCOc1cccc(Oc2ccccc2)c1 [Example 38, N-Hydroxy-N-[4-(3-phenoxyphenoxy)-2-butynyl]urea]	inhibition in vivo at 100 µmol/kg [1]: 100%
500 nM	COc1ccc(Oc2cccc(C#CC(C)N(O)C(N)=O)c2)cc1 (stereo not drawn) [Example 40, N-Hydroxy-N-[4-[3-(4-methoxyphenoxy)phenyl]-3-butyn-2-yl]urea]	
3500 nM	NC(=O)N(O)CC#CCOc1ccccc1 [Example 41, N-Hydroxy-N-(4-phenoxy-2-butynyl)urea]	
200 nM	CC(C#CCOc1cccc(Oc2ccccc2)c1)N(O)C(N)=O (stereo not drawn) [Example 45, N-Hydroxy-N-[5-(3-phenoxyphenoxy)-3-pentyn-2-yl]urea]	
	NC(=O)N(O)CC#CCOc1cccc(Oc2cccnc2)c1 [Example 49]	inhibition in vivo at 100 µmol/kg [1]: 98%
	NC(=O)N(O)CC#Cc1cccc(Oc2cccnc2)c1 [Example 54, N-Hydroxy-N-[3-[3-(3-pyridinyloxy)phenyl]-2-propyn-1-yl]urea]	inhibition in vivo at 30 µmol/kg [1]: 78%
900 nM	CC(C#CCCc1cccc(Oc2ccccn2)c1)N(O)C(N)=O (stereo not drawn) [Example 55, N-Hydroxy-N-[6-[3-(2-pyridinyloxy)phenyl]-3-hexyn-2-yl,1]-urea]	
300 nM	CNC(=O)N(O)C(C)C#Cc1cccc(Oc2ccccn2)c1 (stereo not drawn) [Example 56, N-Hydroxy-N-[4-[3-(2-pyridinyloxy)phenyl]-3-butyn-2-yl]-N'-methylurea]	
	NC(=O)N(O)CC#Cc1ccc(Oc2ccc(F)cc2)o1 [Example 60, N-hydroxy-N-{3-[5-(4-fluorophenoxy)-2-furyl]-2-propynyl}urea]	inhibition in vivo at 30 µmol/kg [1]: 70%
	NC(=O)N(O)CC#Cc1cccc(Oc2ccccn2)c1 [Example 63, N-Hydoxy-N-[3-[3-(2-pyridinyloxy)phenyl]-2-propyn-1-yl]urea]	inhibition in vivo at 30 µmol/kg [1]: 85%
200 nM	COc1cccc(Oc2cccc(C#CC(C)N(O)C(N)=O)c2)n1 (stereo not drawn) [Example 65, N-Hydroxy-N-[4-[3-(6-methoxypyridin-2-yloxy)phenyl]-3-butyn-2-yl]urea]	
